Measured values published in patent US9120774B2 (University of Kansas, priority 2009, dated 2015).
Like-named read-outs stand apart in the source and are kept apart here. Each block holds one molecule with its values, some of them ahead of it.

Key:
Assay type in all cases: cell-based
[1] = tested on: SkBr3 (Her2 overexpressing breast cancer cells); experiment: Anti-proliferation activity against SkBr3 cells (MTS/PMS); settings: 72 hours, read-out: IC50 SKBr3
Summary of the method: (§1)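 Cells seeded at 2000/well, attached overnight, then exposed to compound at varying concentrations (1% DMSO final) for 72 hours at 37° C. Viable cells read by MTS/PMS, normalised to 1% DMSO as 100% proliferation. IC50 from separate triplicate experiments.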

[2] = tested on: MCF-7 (estrogen receptor positive breast cancer cells); experiment: Anti-proliferation activity against MCF-7 cells (MTS/PMS); settings: 72 hours, read-out: IC50 MCF-7
Summary of the method: as §1

[3] = tested on: LN3 (metastatic human prostate cancer cells); experiment: Anti-proliferation activity against LN3 cells (MTS/PMS); settings: 72 hours
Description: (§2) Cells were maintained in a 1:1 mixture of Advanced DMEM/F12 (Gibco) supplemented with non-essential amino acids, L-glutamine (2 mM), streptomycin (500 μg/mL), penicillin (100 units/mL), and 10% FBS. Cells were grown to confluence in a humidified atmosphere (37° C., 5% CO2), seeded (2000/well, 100 μL) in 96-well plates, and allowed to attach overnight. Compound or GDA at varying concentrations in DMSO (1% DMSO final concentration) was added, and cells were returned to the incubator for 72 hours. At 72 hours, the number of viable cells was determined using an MTS/PMS cell proliferation kit (Promega) per the manufacturer's instructions. Cells incubated in 1% DMSO were used at 100% proliferation, and values were adjusted accordingly. IC50 values were calculated from separate experiments performed in triplicate using GraphPad Prism.

[4] = tested on: MM2 (metastatic mammary tumor cancer cells); experiment: Anti-proliferation activity against MM2 cells (MTS/PMS); settings: 72 hours
Description: as §2

[5] = tested on: A549 (human alveolar basal epithelial cells); experiment: Anti-proliferation activity against A549 cells (MTS/PMS); settings: 72 hours
Description: as §2

[6] = Table 8, unsaturated azasugar analogues
[7] = Table 9, azasugar analogues on 8-methyl coumarin
[8] = Homo sapiens, SK-BR-3, Table 10, azasugar analogues on 6-methoxy coumarin
[9] = Homo sapiens, MCF7, Table 10, azasugar analogues on 6-methoxy coumarin
[10] = Homo sapiens, Table 10, azasugar analogues on 6-methoxy coumarin
[11] = Table 10, azasugar analogues on 6-methoxy coumarin
[12] = Homo sapiens, A549, Table 10, azasugar analogues on 6-methoxy coumarin

Compound: CO[C@@H]1[C@@H](O)[C@@H](O)[C@H](Oc2ccc3cc(NC(=O)c4ccccc4N)c(=O)oc3c2C)OC1(C)C [18 KU-260]
- IC50 [1, 6]: 1.61 ± 0.1 µM
- IC50 [2, 6]: 1.73 µM
- IC50 [3, 6]: 4.23 µM
- IC50 [4, 6]: 4.36 µM
- IC50 [5, 6]: 1.42 µM

Compound: CO[C@@H]1[C@@H](O)[C@@H](O)[C@H](Oc2ccc3cc(NC(=O)OCc4ccccc4)c(=O)oc3c2C)OC1(C)C [24, KU-249]
- IC50 [1, 7]: 2.91 ± 1.1 µM
- IC50 [2, 7]: 2.07 ± 1.1 µM
- IC50 [3, 7]: 6.73 µM
- IC50 [4, 7]: 7.75 µM
- IC50 [5, 7]: 4.07 µM

Compound: CO[C@@H]1[C@@H](O)[C@@H](O)[C@H](Oc2ccc3cc(NC(=O)C=Cc4ccccc4)c(=O)oc3c2C)OC1(C)C [25, KU-254]
- IC50 [1, 7]: > 50 µM
- IC50 [2, 7]: > 50 µM
- IC50 [3, 7]: 0.23 µM
- IC50 [4, 7]: 3.42 µM

Compound: COc1ccc(C(=O)Nc2cc3ccc(O[C@@H]4OC(C)(C)[C@H](OC)[C@@H](O)[C@H]4O)c(C)c3oc2=O)cc1-c1ccccc1 [28, KU-252]
- IC50 [1, 7]: 5.41 ± 0.8 µM
- IC50 [2, 7]: 29.4 ± 8.4 µM
- IC50 [3, 7]: 0.35 µM
- IC50 [4, 7]: 2.99 µM

Compound: COc1cccc(-c2cc(C(=O)Nc3cc4ccc(OC5CCN(C)CC5)c(OC)c4oc3=O)ccc2OC)c1 [KU-275]
- IC50 ([1]; Homo sapiens, SK-BR-3, Table 11, azasugar analogues on 8-methoxy coumarin): 0.97 ± 0.09 µM
- IC50 ([2]; Homo sapiens, MCF7, Table 11, azasugar analogues on 8-methoxy coumarin): 1.39 ± 0.35 µM
- IC50 ([3]; Homo sapiens, Table 11, azasugar analogues on 8-methoxy coumarin): 4.75 µM
- IC50 ([4]; Table 11, azasugar analogues on 8-methoxy coumarin): 3.71 µM
- IC50 ([5]; Homo sapiens, A549, Table 11, azasugar analogues on 8-methoxy coumarin): 3.06 µM

Continued, values first:

- IC50 [1, 8]: 1.49 ± 0.07 µM
- IC50 [2, 9]: 1.41 ± 0.16 µM
- IC50 [3, 10]: 6.63 µM
- IC50 [4, 11]: 4.47 µM
- IC50 [5, 12]: 3.19 µM
Compound: COc1cccc(-c2cc(C(=O)Nc3cc4cc(OC)c(OC5CCCN(C)C5)c(C)c4oc3=O)ccc2OC)c1 (centres unmarked) [KU-281]

- IC50 [1, 8]: 1.2 ± 0.1 µM
- IC50 [2, 9]: 2.82 ± 1.38 µM
- IC50 [3, 10]: 5.27 µM
- IC50 [4, 11]: 4.02 µM
- IC50 [5, 12]: 3.5 µM
Compound: COc1cccc(-c2cc(C(=O)Nc3cc4cc(OC)c(OC5CCNCC5)c(C)c4oc3=O)ccc2OC)c1 [KU-286]

- IC50 [1, 8]: 1.19 ± 0.21 µM
- IC50 [2, 9]: 1.79 ± 0.11 µM
- IC50 [3, 10]: 4.07 µM
- IC50 [4, 11]: 2.84 µM
- IC50 [5, 12]: 1.99 µM
Compound: COc1cccc(-c2cc(C(=O)Nc3cc4cc(OC)c(OC5CCN(C)CC5)c(C)c4oc3=O)ccc2OC)c1 [KU-287]
